This is an account of results in article PMC7609050, “Photosynthesis without β-carotene” (eLife, 2020).

In the assay the target is T1, PSII core (Nicotiana tabacum, UniProt P06411+P06413+P69556+P69686).
T1 construct: gene psbA; native PSII core complex, sucrose gradient band of alpha-DDM-solubilised thylakoids; some Lhcb contamination
The assay can be described thus: HPLC and absorption-fit pigment analysis of isolated complex. The assay is classed as binding. Particulars: normalised to 37 Chls. The text has this:
HPLC and absorption-fit pigment analysis of isolated complex on PSII core

As to `CC1=C(/C=C/C(C)=C/C=C/C(C)=C/C=C/C=C(C)/C=C/C=C(C)/C=C/C2=C(C)C(=O)[C@@H](O)CC2(C)C)C(C)(C)C[C@H](O)C1=O` [astaxanthin], the “Asta and its bypass products” value (complex from Asta plants (no beta-carotene), count includes by-products of astaxanthin synthesis) was determined as 4.12 ± 0.01 molecules per complex. For `CC1=C(/C=C/C(C)=C/C=C/C(C)=C/C=C/C=C(C)/C=C/C=C(C)/C=C/C2=C(C)CCCC2(C)C)C(C)(C)CCC1` [β-carotene], the β-caro (complex from wild-type plants) stood at 3.93 ± 0.08 molecules per complex.
